# Laboratory results reported in PMC6149898, “GPCR Modulation of Thieno[2,3-b]pyridine Anti-Proliferative Agents” (Molecules : A Journal of Synthetic Chemistry and Natural …, 2017).
# How the values were obtained:
# CNS:SF-268 = system: CNS:SF-268; design: method as in earlier work; settings: NCI-60 panel; ref [4],[5],[6],[7]; cited from earlier work
# OV:OVCAR-4 = system: OV:OVCAR-4; design: method as in earlier work; settings: NCI-60 panel; ref [4],[5],[6],[7]; cited from earlier work
# OV:OVCAR-3 = system: OV:OVCAR-3; design: method as in earlier work; settings: NCI-60 panel; ref [4],[5],[6],[7]; cited from earlier work
# LE:RPMI-8226 = system: LE:RPMI-8226; design: method as in earlier work; settings: NCI-60 panel; ref [4],[5],[6],[7]; cited from earlier work
# MC3R = MC3R (Homo sapiens, UniProt P41968); assay: gpcrMAX PathHunter beta-arrestin
# Sequence of MC3R (P41968 whole entry): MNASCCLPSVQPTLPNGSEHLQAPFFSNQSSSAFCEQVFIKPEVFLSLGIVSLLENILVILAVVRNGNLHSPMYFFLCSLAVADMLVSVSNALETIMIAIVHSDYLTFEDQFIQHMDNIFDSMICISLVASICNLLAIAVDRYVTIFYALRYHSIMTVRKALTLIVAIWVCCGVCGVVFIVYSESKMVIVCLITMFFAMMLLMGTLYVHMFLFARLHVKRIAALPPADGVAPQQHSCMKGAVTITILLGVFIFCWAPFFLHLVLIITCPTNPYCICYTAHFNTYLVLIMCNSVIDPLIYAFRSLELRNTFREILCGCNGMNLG
# OXER1 = OXER1 (Homo sapiens, UniProt Q8TDS5); assay: gpcrMAX PathHunter beta-arrestin
# OV:NCI/ADR-RES = system: OV:NCI/ADR-RES; design: method as in earlier work; settings: NCI-60 panel; ref [4],[5],[6],[7]; cited from earlier work
# AVPR1B = AVPR1B (Homo sapiens, UniProt P47901); assay: gpcrMAX PathHunter beta-arrestin
# Sequence of AVPR1B (P47901 whole entry): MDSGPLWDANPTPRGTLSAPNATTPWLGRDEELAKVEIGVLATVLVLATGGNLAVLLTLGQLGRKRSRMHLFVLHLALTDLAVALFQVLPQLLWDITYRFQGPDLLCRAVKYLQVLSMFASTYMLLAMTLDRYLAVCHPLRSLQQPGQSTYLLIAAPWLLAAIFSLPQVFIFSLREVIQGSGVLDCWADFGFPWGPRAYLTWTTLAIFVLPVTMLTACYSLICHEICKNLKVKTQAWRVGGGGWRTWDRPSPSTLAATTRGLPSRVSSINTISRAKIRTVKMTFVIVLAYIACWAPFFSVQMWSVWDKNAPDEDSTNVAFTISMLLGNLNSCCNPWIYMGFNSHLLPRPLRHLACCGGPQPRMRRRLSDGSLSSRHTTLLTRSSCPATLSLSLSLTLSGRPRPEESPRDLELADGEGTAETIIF
# DRD5 = DRD5 (Homo sapiens, UniProt P21918); assay: gpcrMAX PathHunter beta-arrestin
# Sequence of DRD5 (P21918 whole entry): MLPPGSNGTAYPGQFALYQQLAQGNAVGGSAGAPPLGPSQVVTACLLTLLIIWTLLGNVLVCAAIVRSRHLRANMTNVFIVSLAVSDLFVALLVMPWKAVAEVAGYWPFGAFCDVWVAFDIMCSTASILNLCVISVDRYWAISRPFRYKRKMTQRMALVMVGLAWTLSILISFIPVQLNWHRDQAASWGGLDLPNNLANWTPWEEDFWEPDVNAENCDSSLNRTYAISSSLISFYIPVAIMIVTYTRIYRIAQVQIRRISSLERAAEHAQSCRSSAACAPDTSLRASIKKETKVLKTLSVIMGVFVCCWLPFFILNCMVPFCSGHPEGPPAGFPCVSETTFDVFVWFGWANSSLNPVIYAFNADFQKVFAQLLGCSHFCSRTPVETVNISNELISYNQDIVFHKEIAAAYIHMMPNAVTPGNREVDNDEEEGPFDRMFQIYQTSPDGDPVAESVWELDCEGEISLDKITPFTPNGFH
# LC:NCI-H460 = system: LC:NCI-H460; design: method as in earlier work; settings: NCI-60 panel; ref [4],[5],[6],[7]; cited from earlier work
# GALR2 = GALR2 (Homo sapiens, UniProt O43603); assay: gpcrMAX PathHunter beta-arrestin
# HCRTR1 = HCRTR1 (Homo sapiens, UniProt O43613); assay: gpcrMAX PathHunter beta-arrestin
# Sequence of HCRTR1 (O43613 whole entry): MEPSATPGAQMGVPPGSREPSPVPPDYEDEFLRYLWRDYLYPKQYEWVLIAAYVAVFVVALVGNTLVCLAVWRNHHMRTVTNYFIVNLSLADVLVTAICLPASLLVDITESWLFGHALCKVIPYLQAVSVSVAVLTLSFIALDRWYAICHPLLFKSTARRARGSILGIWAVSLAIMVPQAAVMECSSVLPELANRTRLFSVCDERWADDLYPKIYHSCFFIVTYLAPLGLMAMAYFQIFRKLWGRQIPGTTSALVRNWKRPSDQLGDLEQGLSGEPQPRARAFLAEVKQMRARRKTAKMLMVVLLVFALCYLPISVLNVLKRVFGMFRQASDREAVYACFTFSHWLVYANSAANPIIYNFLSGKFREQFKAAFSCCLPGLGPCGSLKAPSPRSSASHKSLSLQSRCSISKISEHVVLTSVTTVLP
# P2RY12 = P2RY12 (Homo sapiens, UniProt Q9H244); assay: gpcrMAX PathHunter beta-arrestin
# Sequence of P2RY12 (Q9H244 whole entry, one chain of several): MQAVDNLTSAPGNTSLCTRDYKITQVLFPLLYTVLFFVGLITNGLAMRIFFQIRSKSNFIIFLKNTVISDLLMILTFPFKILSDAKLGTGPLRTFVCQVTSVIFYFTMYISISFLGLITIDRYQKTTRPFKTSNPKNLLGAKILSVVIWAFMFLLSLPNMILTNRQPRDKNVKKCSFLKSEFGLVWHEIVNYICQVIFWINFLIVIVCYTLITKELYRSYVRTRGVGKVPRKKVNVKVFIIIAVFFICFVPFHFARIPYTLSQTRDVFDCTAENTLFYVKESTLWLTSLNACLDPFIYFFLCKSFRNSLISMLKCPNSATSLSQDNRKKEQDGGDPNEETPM
# CNS:SNB-19 = system: CNS:SNB-19; design: method as in earlier work; settings: NCI-60 panel; ref [4],[5],[6],[7]; cited from earlier work
# ADRA2B = ADRA2B (Homo sapiens, UniProt P18089); assay: gpcrMAX PathHunter beta-arrestin
# TACR1 = TACR1 (Homo sapiens, UniProt P25103); assay: gpcrMAX PathHunter beta-arrestin
# Sequence of TACR1 (P25103 whole entry): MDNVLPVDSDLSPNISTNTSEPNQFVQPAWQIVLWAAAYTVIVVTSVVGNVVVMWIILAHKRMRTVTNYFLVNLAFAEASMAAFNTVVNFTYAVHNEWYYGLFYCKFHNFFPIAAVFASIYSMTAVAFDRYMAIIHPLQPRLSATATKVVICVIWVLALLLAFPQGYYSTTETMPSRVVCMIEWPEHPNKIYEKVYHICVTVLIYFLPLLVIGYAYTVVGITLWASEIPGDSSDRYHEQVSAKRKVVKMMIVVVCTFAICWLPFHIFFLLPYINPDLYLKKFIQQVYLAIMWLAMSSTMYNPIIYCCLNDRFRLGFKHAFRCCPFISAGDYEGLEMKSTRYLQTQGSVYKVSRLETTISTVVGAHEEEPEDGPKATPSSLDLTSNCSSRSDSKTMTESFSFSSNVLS
# MRGPRX2 = MRGPRX2 (Homo sapiens, UniProt Q96LB1); assay: gpcrMAX PathHunter beta-arrestin
# PROKR1 = PROKR1 (Homo sapiens, UniProt Q8TCW9); assay: gpcrMAX PathHunter beta-arrestin
# FSHR = FSHR (Homo sapiens, UniProt P23945); assay: gpcrMAX PathHunter beta-arrestin
# RXFP3 = RXFP3 (Homo sapiens, UniProt Q9NSD7); assay: gpcrMAX PathHunter beta-arrestin
# PR:DU-145 = system: PR:DU-145; design: method as in earlier work; settings: NCI-60 panel; ref [4],[5],[6],[7]; cited from earlier work
# CXCR3 = CXCR3 (Homo sapiens, UniProt P49682); assay: gpcrMAX PathHunter beta-arrestin
# Sequence of CXCR3 (P49682 whole entry): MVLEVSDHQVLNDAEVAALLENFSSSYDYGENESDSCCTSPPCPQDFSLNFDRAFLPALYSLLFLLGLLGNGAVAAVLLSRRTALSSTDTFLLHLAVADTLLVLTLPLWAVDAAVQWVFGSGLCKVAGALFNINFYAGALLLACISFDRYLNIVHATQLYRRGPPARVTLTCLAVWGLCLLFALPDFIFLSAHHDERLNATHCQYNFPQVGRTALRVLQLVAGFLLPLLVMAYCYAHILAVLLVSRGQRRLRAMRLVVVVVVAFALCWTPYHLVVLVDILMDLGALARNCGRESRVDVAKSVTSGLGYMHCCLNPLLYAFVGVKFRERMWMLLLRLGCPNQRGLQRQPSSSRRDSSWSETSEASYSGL
# LHCGR = LHCGR (Homo sapiens, UniProt P22888); assay: gpcrMAX PathHunter beta-arrestin
# Sequence of LHCGR (P22888 27-699): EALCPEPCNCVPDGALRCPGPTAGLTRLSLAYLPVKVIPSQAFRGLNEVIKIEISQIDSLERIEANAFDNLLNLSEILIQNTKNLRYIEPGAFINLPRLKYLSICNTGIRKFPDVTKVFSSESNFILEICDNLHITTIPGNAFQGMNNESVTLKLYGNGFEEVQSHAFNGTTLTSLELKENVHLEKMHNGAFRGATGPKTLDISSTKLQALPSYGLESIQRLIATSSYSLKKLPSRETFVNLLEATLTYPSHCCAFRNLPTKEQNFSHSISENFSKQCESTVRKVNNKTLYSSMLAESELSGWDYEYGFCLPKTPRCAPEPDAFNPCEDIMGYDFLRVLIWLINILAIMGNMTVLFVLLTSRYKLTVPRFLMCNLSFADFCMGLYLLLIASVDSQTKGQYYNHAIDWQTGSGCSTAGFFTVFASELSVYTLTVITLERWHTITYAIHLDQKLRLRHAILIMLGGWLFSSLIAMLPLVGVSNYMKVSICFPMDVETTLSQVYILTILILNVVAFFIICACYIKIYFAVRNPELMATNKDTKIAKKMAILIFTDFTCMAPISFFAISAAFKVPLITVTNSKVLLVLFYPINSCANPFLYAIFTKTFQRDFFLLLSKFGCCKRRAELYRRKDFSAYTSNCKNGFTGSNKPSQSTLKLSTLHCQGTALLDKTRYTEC
# LC:HOP-92 = system: LC:HOP-92; design: method as in earlier work; settings: NCI-60 panel; ref [4],[5],[6],[7]; cited from earlier work
# GPR1 = GPR1 (Homo sapiens, UniProt P46091); assay: gpcrMAX PathHunter beta-arrestin
# Sequence of GPR1 (P46091 whole entry): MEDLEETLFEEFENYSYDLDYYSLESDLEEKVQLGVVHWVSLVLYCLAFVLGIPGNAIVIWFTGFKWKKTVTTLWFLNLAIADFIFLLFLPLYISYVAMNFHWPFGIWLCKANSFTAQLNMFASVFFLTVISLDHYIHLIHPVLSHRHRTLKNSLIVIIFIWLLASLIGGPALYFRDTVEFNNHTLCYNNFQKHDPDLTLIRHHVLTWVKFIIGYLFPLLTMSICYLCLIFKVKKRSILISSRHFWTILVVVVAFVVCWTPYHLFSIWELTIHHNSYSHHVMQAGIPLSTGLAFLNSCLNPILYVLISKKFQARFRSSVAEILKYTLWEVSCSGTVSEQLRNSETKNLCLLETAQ
# AGTRL1 = AGTRL1 (Homo sapiens, UniProt P35414); assay: gpcrMAX PathHunter beta-arrestin
# F2RL1 = F2RL1 (Homo sapiens, UniProt P55085); assay: gpcrMAX PathHunter beta-arrestin
# Sequence of F2RL1 (P55085 26-397): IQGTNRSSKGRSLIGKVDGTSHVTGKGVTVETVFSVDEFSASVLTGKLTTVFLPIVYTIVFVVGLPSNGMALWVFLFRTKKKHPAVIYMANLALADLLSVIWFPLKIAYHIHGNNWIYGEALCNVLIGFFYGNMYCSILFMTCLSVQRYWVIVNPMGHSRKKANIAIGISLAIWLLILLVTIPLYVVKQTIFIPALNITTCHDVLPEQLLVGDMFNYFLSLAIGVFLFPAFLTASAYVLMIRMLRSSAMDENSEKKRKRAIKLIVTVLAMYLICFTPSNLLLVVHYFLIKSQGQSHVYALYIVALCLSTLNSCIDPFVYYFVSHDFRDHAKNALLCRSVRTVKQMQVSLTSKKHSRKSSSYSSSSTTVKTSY
# RE:786-0 = system: RE:786-0; design: method as in earlier work; settings: NCI-60 panel; ref [4],[5],[6],[7]; cited from earlier work
# PTHR2 = PTHR2 (Homo sapiens, UniProt P49190); assay: gpcrMAX PathHunter beta-arrestin
# LTB4R = LTB4R (Homo sapiens, UniProt Q15722); assay: gpcrMAX PathHunter beta-arrestin
# EDG1 = EDG1 (Homo sapiens, UniProt P21453); assay: gpcrMAX PathHunter beta-arrestin
# F2R = F2R (Homo sapiens, UniProt P25116); assay: gpcrMAX PathHunter beta-arrestin
# CX3CR1 = CX3CR1 (Homo sapiens, UniProt P49238); assay: gpcrMAX PathHunter beta-arrestin
# Sequence of CX3CR1 (P49238 whole entry): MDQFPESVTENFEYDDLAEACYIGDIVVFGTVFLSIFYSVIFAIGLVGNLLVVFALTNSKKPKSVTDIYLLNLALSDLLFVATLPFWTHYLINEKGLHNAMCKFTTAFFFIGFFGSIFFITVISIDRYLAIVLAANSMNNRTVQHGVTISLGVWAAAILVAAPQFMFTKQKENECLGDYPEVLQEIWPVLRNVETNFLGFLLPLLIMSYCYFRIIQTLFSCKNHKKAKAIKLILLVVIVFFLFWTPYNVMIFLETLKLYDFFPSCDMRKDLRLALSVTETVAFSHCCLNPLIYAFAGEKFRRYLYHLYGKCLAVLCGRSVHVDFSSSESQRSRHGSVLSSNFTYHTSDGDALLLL
# TSHR(L) = TSHR(L) (Homo sapiens, UniProt P16473); assay: gpcrMAX PathHunter beta-arrestin
# CALCR = CALCR (Homo sapiens, UniProt P30988); assay: gpcrMAX PathHunter beta-arrestin
# RE:SN12C = system: RE:SN12C; design: method as in earlier work; settings: NCI-60 panel; ref [4],[5],[6],[7]; cited from earlier work
# HTR5A = HTR5A (Homo sapiens, UniProt P47898); assay: gpcrMAX PathHunter beta-arrestin
# Sequence of HTR5A (P47898 whole entry): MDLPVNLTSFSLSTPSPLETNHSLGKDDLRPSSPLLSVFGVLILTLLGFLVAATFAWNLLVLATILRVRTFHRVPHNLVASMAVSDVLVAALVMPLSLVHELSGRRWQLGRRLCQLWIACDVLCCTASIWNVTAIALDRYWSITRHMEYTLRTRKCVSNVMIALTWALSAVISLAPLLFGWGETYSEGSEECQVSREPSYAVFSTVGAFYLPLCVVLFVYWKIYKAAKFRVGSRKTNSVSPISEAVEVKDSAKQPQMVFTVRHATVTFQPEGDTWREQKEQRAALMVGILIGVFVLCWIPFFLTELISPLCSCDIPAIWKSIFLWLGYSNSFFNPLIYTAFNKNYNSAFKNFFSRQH
compound,measurement,setting,value
Cc1c(Cl)cccc1NC(=O)c1sc2nc3c(cc2c1N)C(=O)CCC3 [Compound 1],GI50,CNS:SF-268,238 nM
same,GI50,OV:OVCAR-4,604 nM
same,GI50,OV:OVCAR-3,48.9 nM
same,GI50,LE:RPMI-8226,256 nM
same,inhibition at 10 µM,MC3R,2%
same,inhibition at 10 µM,OXER1,-1%
same,GI50,OV:NCI/ADR-RES,46.3 nM
same,inhibition at 10 µM,AVPR1B,3%
same,inhibition at 10 µM,DRD5,-31%
same,GI50,LC:NCI-H460,40.8 nM
same,inhibition at 10 µM,GALR2,-5%
same,inhibition at 10 µM,HCRTR1,13%
same,inhibition at 10 µM,P2RY12,-25%
same,% Inhibition,"P2RY12; antagonist mode, 10 µM",no antagonist modulation was observed
same,GI50,CNS:SNB-19,70.1 nM
same,inhibition at 10 µM,ADRA2B,-9%
same,inhibition at 10 µM,TACR1,-3%
same,inhibition at 10 µM,MRGPRX2,-1%
same,inhibition at 10 µM,PROKR1,6%
same,inhibition at 10 µM,FSHR,30%
same,inhibition at 10 µM,RXFP3,-27%
same,GI50,PR:DU-145,152 nM
same,inhibition at 10 µM,CXCR3,-19%
same,inhibition at 10 µM,LHCGR,-2%
same,GI50,LC:HOP-92,47.9 nM
same,inhibition at 10 µM,GPR1,7%
same,inhibition at 10 µM,AGTRL1,5%
same,inhibition at 10 µM,F2RL1,11%
same,GI50,RE:786-0,103 nM
same,inhibition at 10 µM,PTHR2,7%
same,inhibition at 10 µM,LTB4R,4%
same,inhibition at 10 µM,EDG1,-6%
same,inhibition at 10 µM,F2R,5%
same,inhibition at 10 µM,CX3CR1,11%
same,inhibition at 10 µM,TSHR(L),-24%
same,inhibition at 10 µM,CALCR,-18%
same,GI50,RE:SN12C,142 nM
same,inhibition at 10 µM,HTR5A,2%
